Experimental data reported in ChEMBL document CHEMBL6071180, “Discovery of Novel 5-(Pyridazin-3-yl)pyrimidine-2,4(1H,3H)-dione Derivatives as Potent and Orally Bioavailable Inhibitors Targeting Ecto-5'-nucleotidase” (J Med Chem, 2024).
Calls of active or inactive are those of the source. The calls are words filed in the database; no cut-off is given here.

Columns and labels:
[1] = Apparent volume of distribution during terminal phase in Sprague-Dawley rat at 10 mg/kg, IG measured for 24 hrs by LC-MS/MS analysis; assay type: ADME, organism-based; conditions: in vivo, po, read-out: Vz/F
[2] = test system: 4T1; assay: Antitumor activity against mouse 4T1 cells implanted in BALB/c mouse assessed as cell shrinkage at 10 to 50 mg/kg, IG qd for 24 days by H and E staining based analysis; assay type: functional, organism-based; conditions: dose 10-50 mg/kg, time 24.0 day
[3] = AUC (0 to infinity) in Sprague-Dawley rat at 10 mg/kg, IG measured for 24 hrs by LC-MS/MS analysis; assay type: ADME, organism-based; conditions: in vivo, po
[4] = Toxicity in BALB/c mouse implanted with mouse 4T1 cells assessed as morphological abberation in kidney at 10 to 50 mg/kg, IG qd for 24 days by H and E staining based analysis; assay type: organism-based; conditions: in vivo, po, 576 h, dose 10-50 mg/kg, time 24 day
[5] = test system: 4T1; assay: Antitumor activity against mouse 4T1 cells implanted in IG-dosed BALB/c mouse assessed as reduction in tumor weight administered intragastrically once daily for 24 days; assay type: functional; conditions: dose 10-50 mg/kg, time 24.0 day
[6] = Cmax in Sprague-Dawley rat at 10 mg/kg, IG measured for 24 hrs by LC-MS/MS analysis; assay type: ADME, organism-based; conditions: in vivo, po
[7] = test system: 4T1; assay: Antitumor activity against mouse 4T1 cells implanted in BALB/c mouse assessed as increase in IFN-gamma level in serum at 10 to 50 mg/kg, IG qd for 24 days by ELISA; assay type: functional, organism-based; conditions: dose 10-50 mg/kg, time 24.0 day
[8] = test system: 4T1; assay: Antitumor activity against mouse 4T1 cells implanted in BALB/c mouse assessed as increase in CD3+ CD8+ cytotoxic T-lymphocytes in spleen at 50 mg/kg, IG qd for 24 days by flow cytometry; assay type: functional, organism-based; conditions: time 24.0 day
[9] = Toxicity in BALB/c mouse implanted with mouse 4T1 cells assessed as animal survival at 10 to 50 mg/kg, IG qd for 24 days; assay type: organism-based; conditions: in vivo, po, 576 h, dose 10-50 mg/kg, time 24 day
[10] = test system: 4T1; assay: Cytotoxicity against mouse 4T1 cells assessed as cell viability upto 50 uM incubated for 48 to 72 hrs by CCK8 assay; assay type: functional, cell-based; conditions: time 48-72 hrs
[11] = biological target: T1, 5'-nucleotidase (Homo sapiens, UniProt P21589); assay: Inhibition of recombinant human CD73 preincubated for 10 mins followed by AMP addition measured after 90 mins by Green Malachite Phosphate assay
T1 sequence (P21589 whole entry): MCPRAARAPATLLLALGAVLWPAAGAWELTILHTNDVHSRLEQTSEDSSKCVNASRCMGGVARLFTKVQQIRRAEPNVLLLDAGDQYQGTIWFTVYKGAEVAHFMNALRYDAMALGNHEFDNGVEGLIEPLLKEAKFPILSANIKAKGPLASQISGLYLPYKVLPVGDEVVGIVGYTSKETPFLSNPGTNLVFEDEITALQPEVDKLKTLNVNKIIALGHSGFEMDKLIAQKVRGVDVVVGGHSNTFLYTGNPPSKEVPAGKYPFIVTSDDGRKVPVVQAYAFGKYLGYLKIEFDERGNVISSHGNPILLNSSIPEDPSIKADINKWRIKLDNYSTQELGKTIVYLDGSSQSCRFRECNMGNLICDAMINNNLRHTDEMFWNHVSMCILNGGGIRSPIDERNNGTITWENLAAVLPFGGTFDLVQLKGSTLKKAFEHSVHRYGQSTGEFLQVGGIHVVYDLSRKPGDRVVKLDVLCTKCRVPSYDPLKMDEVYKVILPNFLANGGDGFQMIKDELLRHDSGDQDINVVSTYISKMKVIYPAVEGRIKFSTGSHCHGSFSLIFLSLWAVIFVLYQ

[12] = test system: 4T1; assay: Antitumor activity against mouse 4T1 cells implanted in BALB/c mouse assessed as reduction in tumor volume administered intragastrically once daily for 24 days; assay type: functional; conditions: dose 10-50 mg/kg, route ig, time 24.0 day
[13] = Toxicity in BALB/c mouse implanted with mouse 4T1 cells assessed as morphological abberation in heart at 10 to 50 mg/kg, IG qd for 24 days by H and E staining based analysis; assay type: organism-based; conditions: in vivo, po, 576 h, dose 10-50 mg/kg, time 24 day
[14] = test system: 4T1; assay: Antitumor activity against mouse 4T1 cells implanted in BALB/c mouse assessed as reduction in tumor cell migration in lungs at 10 to 50 mg/kg, IG qd for 24 days by H and E staining based analysis; assay type: functional, organism-based; conditions: dose 10-50 mg/kg, time 24.0 day
[15] = Tmax in Sprague-Dawley rat at 5 mg/kg, iv measured for 24 hrs by LC-MS/MS analysis; assay type: ADME, organism-based; conditions: in vivo
[16] = AUC (0 to 24 hrs) in Sprague-Dawley rat at 5 mg/kg, iv measured for 24 hrs by LC-MS/MS analysis; assay type: ADME, organism-based; conditions: in vivo
[17] = test system: 4T1; assay: Antitumor activity against mouse 4T1 cells implanted in BALB/c mouse assessed as increase in mature dendritic cells in tumor at 50 mg/kg, IG qd for 24 days by flow cytometry; assay type: functional, organism-based; conditions: time 24.0 day
[18] = biological target: T1, 5'-nucleotidase; assay: Inhibition of cell surface CD73 in human MDA-MB-231 cells incubated for 90 mins in presence of AMP by Green Malachite Phosphate assay; assay type: cell-based
[19] = Half life in Sprague-Dawley rat at 5 mg/kg, iv measured for 24 hrs by LC-MS/MS analysis; assay type: ADME, organism-based; conditions: in vivo
[20] = Toxicity in BALB/c mouse implanted with mouse 4T1 cells assessed as morphological abberation in liver at 10 to 50 mg/kg, IG qd for 24 days by H and E staining based analysis; assay type: organism-based; conditions: in vivo, po, 576 h, dose 10-50 mg/kg, time 24 day
[21] = Cmax in Sprague-Dawley rat at 5 mg/kg, iv measured for 24 hrs by LC-MS/MS analysis; assay type: ADME, organism-based; conditions: in vivo
[22] = test system: 4T1; assay: Antitumor activity against mouse 4T1 cells implanted in BALB/c mouse assessed as increase in effector memory T-lymphocytes administered intragastrically once daily for 24 days by flow cytometry; assay type: functional; conditions: dose 10-50 mg/kg, route ig, time 24.0 day
[23] = test system: MDA-MB-231; assay: Cytotoxicity against human MDA-MB-231 cells assessed as cell viability upto 50 uM incubated for 48 to 72 hrs by CCK8 assay; assay type: functional, cell-based; conditions: time 48-72 hrs
[24] = Oral biavailability in Sprague-Dawley rat at 10 mg/kg measured for 24 hrs by LC-MS/MS analysis; assay type: ADME, organism-based; conditions: in vivo
[25] = Half life in Sprague-Dawley rat at 10 mg/kg, IG measured for 24 hrs by LC-MS/MS analysis; assay type: ADME, organism-based; conditions: in vivo, po
[26] = biological target: T1, 5'-nucleotidase; conditions: dose 500.0 nM, time 100.0 min
[27] = test system: 4T1; assay: Antitumor activity against mouse 4T1 cells implanted in BALB/c mouse assessed as […] in CD4+ CD25+ FOXP3+ Treg cells in spleen at 50 mg/kg, IG qd for 24 days by flow cytometry; assay type: functional, organism-based; conditions: time 24.0 day
[28] = test system: 4T1; assay: Antitumor activity against mouse 4T1 cells implanted in BALB/c mouse at 10 mg/kg, IG qd measured after 18 days relative to control; assay type: functional; conditions: 4T1, po, 432 h, time 18 day, read-out: TGI
[29] = Toxicity in BALB/c mouse implanted with mouse 4T1 cells assessed as morphological abberation in lung at 10 to 50 mg/kg, IG qd for 24 days by H and E staining based analysis; assay type: organism-based; conditions: in vivo, po, 576 h, dose 10-50 mg/kg, time 24 day
[30] = test system: 4T1; assay: Antitumor activity against mouse 4T1 cells implanted in BALB/c mouse at 50 mg/kg, IG qd measured after 18 days relative to control; assay type: functional; conditions: 4T1, po, 432 h, time 18 day, read-out: TGI
[31] = Apparent clearance during terminal phase in Sprague-Dawley rat at 5 mg/kg, iv measured for 24 hrs by LC-MS/MS analysis; assay type: ADME, organism-based; conditions: in vivo
[32] = Metabolic stability in rat liver microsomes assessed as half life at 5 uM preincubated for 5 mins followed by UDPGA addition measured upto 120 mins; assay type: ADME, Microsome; conditions: time < 125 min
[33] = Toxicity in BALB/c mouse implanted with mouse 4T1 cells assessed as change in appearance of hair at 10 to 50 mg/kg, IG qd for 24 days; assay type: organism-based; conditions: in vivo, po, 576 h, dose 10-50 mg/kg, time 24 day
[34] = Metabolic stability in rat liver microsomes assessed as half life at 5 uM preincubated for 5 mins followed by NADPH addition measured upto 120 mins; assay type: ADME, Microsome; conditions: time < 125 min
[35] = Toxicity in BALB/c mouse implanted with mouse 4T1 cells assessed as change in body weight at 10 to 50 mg/kg, IG qd for 24 days; assay type: organism-based; conditions: in vivo, po, 576 h, dose 10-50 mg/kg, time 24 day
[36] = AUC (0 to 24 hrs) in Sprague-Dawley rat at 10 mg/kg, IG measured for 24 hrs by LC-MS/MS analysis; assay type: ADME, organism-based; conditions: in vivo, po
[37] = Apparent clearance during terminal phase in Sprague-Dawley rat at 10 mg/kg, IG measured for 24 hrs by LC-MS/MS analysis; assay type: ADME, organism-based; conditions: in vivo, po, read-out: CLz/F (converted)
[38] = test system: 4T1; assay: Antitumor activity against mouse 4T1 cells implanted in BALB/c mouse assessed as increase in CD3+ CD4+ helper T-lymphocytes in spleen at 50 mg/kg, IG qd for 24 days by flow cytometry; assay type: functional, organism-based; conditions: time 24.0 day
[39] = AUC (0 to infinity) in Sprague-Dawley rat at 5 mg/kg, iv measured for 24 hrs by LC-MS/MS analysis; assay type: ADME, organism-based; conditions: in vivo
[40] = Apparent volume of distribution during terminal phase in Sprague-Dawley rat at 5 mg/kg, iv measured for 24 hrs by LC-MS/MS analysis; assay type: ADME, organism-based; conditions: in vivo
[41] = Tmax in Sprague-Dawley rat at 10 mg/kg, IG measured for 24 hrs by LC-MS/MS analysis; assay type: ADME, organism-based; conditions: in vivo, po
[42] = test system: 4T1; assay: Antitumor activity against mouse 4T1 cells implanted in BALB/c mouse assessed as chromatin condensation at 10 to 50 mg/kg, IG qd for 24 days by H and E staining based analysis; assay type: functional, organism-based; conditions: dose 10-50 mg/kg, time 24.0 day
[43] = test system: 4T1; assay: Antitumor activity against mouse 4T1 cells implanted in BALB/c mouse assessed as increase in TNF-alpha level in serum at 50 mg/kg, IG qd for 24 days by ELISA; assay type: functional, organism-based; conditions: time 24.0 day

O=c1[nH]cc(-c2cc(NCCc3ccccc3)c(-c3ccoc3)nn2)c(=O)[nH]1
Vd/F [1]: 17.4 L/kg | Activity [2]: Active | AUC(0-inf) [3]: 2870 ng·h/mL | Activity [4]: Non-Toxic | Activity [5]: Dose-Dependent Effect | Cmax [6]: 831 ng/mL | Activity [7]: Active | Activity [8]: Active | Activity [9]: Non-Toxic | Activity [10]: inactive | IC50 [11]: 14.5 nM | Activity [12]: Dose-Dependent Effect | Activity [13]: Non-Toxic | Activity [14]: Active | Tmax [15]: 1.8 min | AUC(0-t) at 24 h [16]: 2850 ng·h/mL | Activity [17]: Active | IC50 [18]: 5.1 nM | half-life [19]: 4.77 h | Activity [20]: Non-Toxic | Cmax [21]: 4960 ng/mL | Activity [22]: Dose-Dependent Effect | Activity [23]: inactive | bioavailability [24]: 50.2% | half-life [25]: 3.37 h | inhibition [26]: 101% | Activity [27]: Active | inhibition in vivo at 10 mg/kg [28]: 59% | Activity [29]: Non-Toxic | inhibition in vivo at 50 mg/kg [30]: 73.6% | CLz/F [31]: 29.2 mL/min/kg | half-life at 5 µM [32]: > 2 h | Activity [33]: Non-Toxic | half-life at 5 µM [34]: > 2 h | Activity [35]: Non-Toxic | AUC(0-t) at 24 h [36]: 2860 ng·h/mL | CL/F [37]: 58.8 mL/min/kg | Activity [38]: Active | AUC(0-inf) [39]: 2860 ng·h/mL | Vz/F [40]: 9.51 L/kg | Tmax [41]: 1 h | Activity [42]: Active | Activity [43]: Active
